In publication PMC6240096, “A hPSC-based platform to discover gene-environment interactions that impact human β-cell and dopamine neuron survival” (Nature Communications, 2018):

Columns and labels:
hESC-derived INS+ cells = test: Ki67 proliferation staining of hESC-derived INS+ cells; type: cell-based, human; conditions: 1.6 µM propargite vs DMSO
Method: (§1) Cells were fixed with 10% (v/v) formalin for 20 min at room temperature (RT) and blocked in a solution of Mg^2+- and Ca^2+-free PBS containing 5% horse serum and 0.3% Triton-X for 1 h at room temperature and followed by incubation with primary antibody at 4 °C overnight. The following primary antibodies and dilutions have been used in this study: goat anti-SOX17 (1:500, R&D system, AF1924), rabbit anti-FOXA2 (1:500, Upstate, 07-633), goat anti-PDX1 (1:500, R&D system, AF2419), mouse anti-NKX6.1 (1:100; BCBC, Ab2024), guinea pig anti-INS (1:1000, Dako, A0564), guinea pig anti-GLUCAGON (1:500, Linco, 4031), mouse anti-Ki67 (1:100, Life technologies, 556003), mouse anti-AMYLASE (1:100, Santa Cruz, sc-46657), rabbit anti-Active Caspase-3 (1:500, BD Bioscience, 559565), mouse anti-Troponin T (1:500, Thermo Scientific, MA5-12960), mouse anti-Actin, Cardiac (1:300, Sigma, A9357), rabbit anti-TUJ1 (1:500, Covance, MRB-435P), Chicken anti-MAP2 (1:1000, Abcam, Ab5392), mouse anti-HuC/D (1:500, Invitrogen, A-21271), mouse anti-MAP2 (1:1500, Sigma, M1406), rabbit anti-TH (1:500, Pel freeze, P40101-0), rat-anti-CTIP2 (1:500, Abcam, ab18465), goat anti-FOXA2 (1:200, R&D, 463783). Donkey anti-guinea pig, mouse, goat, rabbit or chicken secondary antibodies conjugated with Alexa-Fluor-488, Alexa-Fluor-594 or Alexa-Fluor-647 fluorophore (1:500, Life technologies) were used. […]

MIN6 cells [1] = test: Ki67 proliferation staining of MIN6 cells; type: cell-based, mouse; conditions: 1.6 μM propargite vs DMSO, 4 days
Method: as §1

MIN6 cells [2] = test: Apoptosis analysis (Annexin V flow cytometry, active caspase-3 staining); type: cell-based, mouse; conditions: immunocytochemistry, 1.6 µM
Method: Cells were fixed with 10% (v/v) formalin for 20 min at room temperature (RT) and blocked in a solution of Mg^2+- and Ca^2+-free PBS containing 5% horse serum and 0.3% Triton-X for 1 h at room temperature and followed by incubation with primary antibody at 4 °C overnight. […]
Cells were dissociated by Accutase (Stem Cells) and washed with cold DPBS and then detected with FITC Annexin V Apoptosis Detection Kit I (BD Bioscience, 556547), and analyzed within 1 h by FACSVantage SE (Becton Dickinson). […]
(§2) cells. (b, c) Flow cytometry analysis (b) and quantification (c) of the percentage of […]
(§3) Etoposide was used as a positive control. Values presented as mean±S.D. (d, e) Immunocytochemistry analysis (d) and quantification (e) of the percentage of Active Caspase-3+ cells in 1.6 µM propargite treated MIN6 cells (n=3). […]

MIN6 cells [3] = test: Autophagy marker LC3-II western blotting; type: cell-based, mouse; conditions: 0.8 µM or 1.6 µM propargite
Excerpt: To extract intracellular protein, cells were placed on ice, washed twice with ice-cold PBS and lysed immediately with RIPA buffer (Life Technologies, 89900) supplemented with a protease inhibitor cocktail (Life Technologies, 78440). Cell lysates were then sonicated and the soluble fraction was collected after centrifugation. Protein amount was quantified by the BCA protein assay (Life Technologies, 23227). To extract extracellular HMGB1, tissue culture media were collected and concentrated using Afyon SDS-PAGE sample preparation kit (advansta, K-02101-025). 20 μg of total protein for each sample was mixed with loading buffer and incubated for 5 min at 95 °C before being loaded into NuPAGE® Novex® 4–12% […] Protein Gels (Life Technologies, NP0321BOX) for electrophoresis. Separated proteins were transferred to a PVDF membrane (Millipore, IPSN07852) after electrophoresis. […] ECL signals were developed and detected using the SuperSignal™ West Femto Maximum Sensitivity Substrate (Life Technologies, 34094) and a C-DiGit Chemiluminescent Western Blot Scanner (LI-COR). […]
as §2, §3

MIN6 cells [4] = test: Intracellular ROS detection; conditions: propargite-treated MIN6 cells
Method: Total intracellular ROS were detected using DCFDA-Cellular Reactive Oxygen Species Detection Assay Kit (Abcam, ab113851).
Species detection for different doses of propargite-treated MIN6 cells (n=3). 50 µM TBHP

2-(4-tert-butylphenoxy)-cyclohexyl prop-2-yne-1-sulfonate [propargite]
percentage of Ki67+/INS+ cells (hESC-derived INS+ cells): did not affect
percentage of Ki67+/INS+ cells (MIN6 cells [1]): No significant difference
caspase-3 activation (MIN6 cells [2]): nor caspase-3 activation
relative levels of LC3-II (MIN6 cells [3]): no significant increase
reactive oxygen species (ROS) (MIN6 cells [4]): did not find any increase
